Test results from patent US8497263B2, “Pyrrolinone derivative and pharmaceutical composition comprising the same” (Shionogi & Co., Ltd., priority 2007, dated 2013).

SMILES	melting point
COc1ccc(C(=O)C2=C(O)C(=O)N(c3ccc(-c4noc(C)n4)cc3)C2c2ccc(F)cc2)cc1 (stereo not drawn) [Example I-14]	236 to 239 °C
COc1ccc(C(=O)C2C(=O)C(=O)N(c3ccc(-c4ccon4)cc3)C2c2ccc(F)cc2)cc1 (stereo not drawn) [Example I-18]	269 to 274 °C (dec.)
CC(C)(C)C(=O)C1=C(O)C(=O)N(c2ccc(-c3ccon3)cc2)C1C1CCCCC1 (stereo not drawn) [Example I-32, 5-cyclohexyl-4-(2,2-dimethylpropionoyl)-3-hydroxy-1-(4-isoxazol-3-ylphenyl)-1,5-dihydropyrrol-2-one]	259 to 260 °C
COc1ccc(C(=O)C2=C(O)C(=O)N(c3ccc(C(F)(F)F)cc3)C2c2ccc(F)cc2)cc1 (stereo not drawn) [Example I-34]	253 to 256 °C (dec.)
COc1ccc(C(=O)C2C(=O)C(=O)N(c3ccc(-c4ccon4)cc3)C2c2ccccc2Cl)cc1 (stereo not drawn) [Example I-40]	254 to 258 °C (dec.)
CC(C)(C)C(=O)C1=C(O)C(=O)N(c2ccc(C(F)(F)F)cc2)C1C1CCCCC1 (stereo not drawn) [Example I-56]	238 to 239 °C
COc1ccc(C(=O)C2C(=O)C(=O)N(c3ccc(-c4cnco4)cc3)C2c2ccc(F)cc2)cc1 (stereo not drawn) [Example I-64]	245 to 246 °C
COc1ccc(C(=O)C2C(=O)C(=O)N(c3ccc(OC)cc3)C2c2ccc(F)cc2)cc1 (stereo not drawn) [Example I-73]	245 to 247 °C
COc1ccc(C(=O)C2C(=O)C(=O)N(c3ccc(-c4cnco4)cc3)C2c2ccccc2)cc1 (stereo not drawn) [Example I-78]	253 to 254 °C
COc1ccc(C(=O)C2=C(O)C(=O)N(c3ccc(C(=O)O)cc3)C2c2ccccc2)cc1 (stereo not drawn) [Example I-87]	268 to 271 °C
CC(C)(C)C(=O)C1/C(=N/O)C(=O)N(c2ccc(-c3ccon3)cc2)C1C1CCCCC1 (stereo not drawn) [Example I-193]	255 to 256 °C
CC(C)(C)c1n[nH]c2c1C(C1CCCCC1)N(c1ccc(C(F)(F)F)cc1)C2=O (stereo not drawn) [Example I-194]	245 to 246 °C
CCC(CC)C1c2c(-c3ccc(=O)[nH]c3)n[nH]c2C(=O)N1c1ccc(-c2ccon2)cc1 (stereo not drawn) [Example I-198, 4-(1-ethylpropyl)-5-(4-isoxazol-3-ylphenyl)-3-(6-oxo-1,6-dihydropyridin-3-yl)-4,5-dihydro-1H-pyrrolo[3,4-c]pyrazol-6-one]	> 290 °C
COc1ccc(C2C(Cc3ccccc3)=C(O)C(=O)N2c2ccc(F)cc2)cc1 (stereo not drawn) [Example I-202]	177 to 178 °C
CCOC(=O)c1ccc(N2C(=O)C(O)=C(Cc3ccccc3)C2c2ccc(OC)cc2)cc1 (stereo not drawn) [Example I-203]	160 to 161 °C
COc1ccc(C(=O)C2=C(O)C(=O)N(Cc3ccc(C(F)(F)F)cc3)C2c2ccc(F)cc2)cc1 (stereo not drawn) [Example I-204]	234 to 237 °C
CO/N=C/c1ccc(N2C(=O)C(O)=C(C(=O)c3ccc(OC)cc3)C2c2ccc(F)cc2)cc1 (stereo not drawn) [Example I-209]	232 to 235 °C
COc1ccc(-c2n[nH]c3c2C(c2ccc(F)cc2)N(c2ccc(-c4ccon4)cc2)C3=O)cc1 (stereo not drawn) [Example I-210]	164 to 166 °C

SMILES	melting point
CCC(CC)C1c2c(-c3ccc(OC)nc3)n[nH]c2C(=O)N1c1ccc(-c2ccon2)cc1 (stereo not drawn) [Example I-211]	226 to 228 °C
COc1ccc(C(=O)C2=C(O)C(=O)N(c3ccc(-c4nnco4)cc3)C2c2ccc(F)cc2)cc1 (stereo not drawn) [Example I-213]	244 to 247 °C
COc1ccc(C(=O)C2=C(O)C(=O)N(c3ccc(C4=NCCS4)cc3)C2c2ccc(F)cc2)cc1 (stereo not drawn) [Example I-216]	229 to 232 °C
COc1ccc(C(=O)C2=C(OCc3ccccc3)C(=O)N(c3ccc(C(F)(F)F)cc3)C2c2ccccc2)cc1 (stereo not drawn) [Example I-217]	173 to 174 °C
COc1ccc(C(=O)C2=C(O)C(=O)N(c3ccc(-c4cc(C)no4)cc3)C2c2ccc(F)cc2)cc1 (stereo not drawn) [Example I-219]	249 to 252 °C
CCOC(=O)c1ccc(N2C(=O)C(OCc3ccccc3)=C(C(=NO)c3ccc(OC)cc3)C2c2ccccc2)cc1 (stereo not drawn) [Example I-225]	196 to 201 °C
CCOC(=O)c1ccc(N2C(=O)/C(=N\O)C(/C(=N\O)c3ccc(OC)cc3)C2c2ccccc2)cc1 (stereo not drawn) [Example I-226]	219 to 221 °C (dec.)
CO/N=C(\C)c1ccc(N2C(=O)C(O)=C(C(=O)c3ccc(OC)cc3)C2c2ccc(F)cc2)cc1 (stereo not drawn) [Example I-227]	221 to 224 °C
COc1ccc(-c2n[nH]c3c2C(c2ccc(F)cc2)N(c2ccc(C(F)(F)F)cc2)C3=O)cc1 (stereo not drawn) [Example I-228]	217 to 218 °C
COc1ccc(C2=NCCNC3=C2C(c2ccc(F)cc2)N(c2ccc(C(F)(F)F)cc2)C3=O)cc1 (stereo not drawn) [Example I-229]	213 to 215 °C
CC(C)(C)C1=NCCNC2=C1C(C1CCCCC1)N(c1ccc(-c3ccon3)cc1)C2=O (stereo not drawn) [Example I-230]	229 to 230 °C
COc1ccc(C(=O)C2=C(O)C(=O)N(c3ccc(-c4noc(C)n4)cc3)C2C2CCCCC2)cc1 (stereo not drawn) [Example I-231]	245 to 248 °C
COc1ccc(C(=O)C2=C(O)C(=O)N(c3ccc(C4=NCCS4)cc3)C2C2CCCCC2)cc1 (stereo not drawn) [Example I-233]	247 to 250 °C
COc1ccc(C(=O)C2=C(O)C(=O)N(c3ccc(Br)cc3)C2c2ccccc2)cc1 (stereo not drawn) [Example I-237]	233 to 236 °C
COc1ccc(C(=O)C2=C(O)C(=O)N(c3ccc(OC)cc3)C2c2ccc(F)cc2)cc1 (stereo not drawn) [Example I-238]	245 to 247 °C
COc1ccc(C(=NO)C2=C(OCc3ccccc3)C(=O)N(c3ccc(C(F)(F)F)cc3)C2c2ccccc2)cc1 (stereo not drawn) [Example I-250]	197 to 204 °C
COc1ccccc1C1c2c(C(C)(C)C)n[nH]c2C(=O)N1c1cccc(-c2ccon2)c1 (stereo not drawn) [II-8]	202 °C
COC1=C(C(=O)C(C)(C)C)C(c2ccccc2OC)N(c2ccc(-c3ccon3)cc2)C1=O (stereo not drawn) [II-156]	136 to 137 °C

Second part, the compound after the results:

melting point	SMILES
268 to 270 °C (dec.)	COc1ccc(C(=O)C2=C(O)C(=O)N(c3ccc(-c4ccon4)cc3)C2c2ccc(Cl)cc2)cc1 (stereo not drawn) [Example I-11]
273 to 274 °C (dec.)	COc1ccc(C(=O)C2=C(O)C(=O)N(c3ccc(-c4ccon4)cc3)C2c2cccc(F)c2)cc1 (stereo not drawn) [Example I-26, 5-(3-fluorophenyl)-3-hydroxy-1-(4-isoxazol-3-ylphenyl)-4-(4-methoxybenzoyl)-1,5-dihydropyrrol-2-one]
238 to 240 °C	COc1ccc(C(=O)C2=C(O)C(=O)N(c3ccc(-c4ccon4)cc3)C2c2cccc(Cl)c2)cc1 (stereo not drawn) [Example I-27]
270 to 271 °C (dec.)	COc1ccc(C(=O)C2=C(O)C(=O)N(c3ccc(-c4ccon4)cc3)C2c2ccccc2F)cc1 (stereo not drawn) [Example I-31]
238 to 240 °C	COc1ccc(C(=O)C2=C(O)C(=O)N(c3ccc(-c4ccon4)cc3)C2c2cccc(OC)c2)cc1 (stereo not drawn) [Example I-46]
271 to 274 °C	COc1ccc(C(=O)C2=C(O)C(=O)N(c3ccc(-c4ccon4)cc3)C2c2ccccc2)cc1 (stereo not drawn) [Example I-50]
193 to 196 °C	COc1ccc(C(=O)C2=C(O)C(=O)N(c3cccc(-c4ccon4)c3)C2c2ccc(F)cc2)cc1 (stereo not drawn) [Example I-185]
246 to 249 °C	CCC(CC)C1C(C(=O)c2ccc(OC)nc2)=C(O)C(=O)N1c1ccc(-c2ccon2)cc1 (stereo not drawn) [Example I-207]
> 290 °C	CCC(CC)C1C(C(=O)c2ccc(=O)[nH]c2)=C(O)C(=O)N1c1ccc(-c2ccon2)cc1 (stereo not drawn) [Example I-208]
227 to 232 °C	CCCC(C)C1C(C(=O)c2ccc(OC)cc2)=C(O)C(=O)N1c1ccc(-c2ccon2)cc1 (stereo not drawn) [Example I-214]
207 to 210 °C	CCCCC(CCCC)C1C(C(=O)c2ccc(OC)cc2)=C(O)C(=O)N1c1ccc(-c2ccon2)cc1 (stereo not drawn) [Example I-215]
229 to 231 °C	CCCC(CCC)C1C(C(=O)c2ccc(OC)cc2)=C(O)C(=O)N1c1ccc(-c2ccon2)cc1 (stereo not drawn) [Example I-220]
241 to 244 °C	COc1ccc(C(=O)C2=C(O)C(=O)N(c3ccc(-c4ccon4)cc3)C2C(C)c2ccccc2)cc1 (stereo not drawn) [Example I-221]
247 to 249 °C	COc1ccc(C(=O)C2=C(O)C(=O)N(c3ccc(-c4ccon4)cc3)C2C2CCN(C(=O)OC(C)(C)C)CC2)cc1 (stereo not drawn) [Example I-222]
268 to 272 °C	COc1ccc(C(=O)C2=C(O)C(=O)N(c3ccc(-c4ccon4)cc3)C2C2CCOCC2)cc1 (stereo not drawn) [Example I-224]
223 to 225 °C	CCC(CC)C1C(C(=O)c2ccc(OC)cc2)=C(O)C(=O)N1c1ccc(-c2noc(C)n2)cc1 (stereo not drawn) [Example I-232]
230 to 233 °C	CCC(CC)C1C(C(=O)c2ccc(OC)cc2)=C(O)C(=O)N1c1ccc(C2=NCCS2)cc1 (stereo not drawn) [Example I-234]
232 to 234 °C	COc1ccc(C(=O)C2=C(O)C(=O)N(c3ccc(-c4ccon4)cc3)C2c2ccccn2)cc1 (stereo not drawn) [Example I-236]
